Key:
Plasmodium falciparum [1] = test: Hit confirmation in dose-response curve in NF54 nanoGlo assay, at 72h; format: functional, organism-based, Erythrocyte; parameters: timepoint 72 hour; settings: Plasmodium falciparum, NF54, Erythrocyte, 72 h
Plasmodium falciparum [2] = test: Hit confirmation in dose-response curve in NF54 pLDH assay, at 72h; format: functional, organism-based; parameters: timepoint 72 hour; settings: NF54, Erythrocyte
Plasmodium falciparum [3] = test: Hit confirmation in dose-response curve in Dd2 pLDH assay, at 72h; format: functional, organism-based; parameters: timepoint 72 hour; settings: Dd2, Erythrocyte
Plasmodium falciparum [4] = test: Hit confirmation in dose-response curve in NF54 nanoGlo assay, at 12h; format: functional, organism-based, Erythrocyte; parameters: timepoint 12 hour; settings: Plasmodium falciparum, NF54, Erythrocyte, 12 h
[5] = Hit confirmation in dose-response curve in HepG2 cytotoxicity assay, at 72h; format: toxicity, cell-based; parameters: timepoint 72 hour; settings: human, HepG2 cells
Plasmodium falciparum [6] = test: Re-testing in dose-response curve in 3D7 pLDH assay, at 72h; format: functional, organism-based; parameters: timepoint 72 hour; settings: 3D7, Erythrocyte
[7] = Re-testing in dose-response curve in HepG2 cytotoxicity assay, at 72h; format: toxicity, cell-based; parameters: timepoint 72 hour; settings: human, HepG2 cells

SMILES | IC50 (Plasmodium falciparum [1]) [nM] | IC50 (Plasmodium falciparum [2]) [nM] | IC50 (Plasmodium falciparum [3]) [nM] | IC50 (Plasmodium falciparum [4]) [nM] | IC50 at 72 h [5] [nM] | IC50 (Plasmodium falciparum [6]) [nM] | IC50 at 72 h [7] [nM]
COc1ccc(-c2cc(C(=O)N[C@H]3CCN(c4ccc(=O)[nH]n4)C3)c(C)n2C)cc1 | 501 | 2040 | 871 | > 10000 | > 10000 | 289 | > 25000
Cc1c([C@@H](NCc2ncccc2O)C(C)C)oc2ccccc12 | 275 | 832 | 602 | 407 | > 10000 | 291 | > 25000
Cc1cnccc1NCCNCc1cccc(O)c1Cl | 1120 | 1480 | 1230 | > 10000 | > 10000 | 943 | > 25000
CCN1CCN(c2cccc(NC(=O)c3ccc4[nH]c5ccccc5c(=O)c4c3)c2)CC1 | 955 | 1700 | 1170 | 4790 | > 10000 | ~459 | 7420
Cc1cc(NC(=O)C(=O)NC2CC(C)CC(C)(C)C2)n(-c2nc3c(c(=O)[nH]2)CCC3)n1 (stereo not drawn) | 1150 | 2090 | 1780 | > 10000 | > 10000 | 392 | 118
CCCCN(CC)CCNC(=O)C1CCN(C2=NS(=O)(=O)C(c3ccc(OC)cc3)=C2C)CC1 | 3020 | 1200 | 1320 | > 10000 | > 10000 | 702 | > 25000
Cc1cnccc1NCCNC1CCN(c2ccc3c(c2)CCC3)CC1 | 4570 | 1020 | 646 | 7080 | 8130 | 321 | 5420
Nc1ncc(C(=O)N2CCC3(CCCCCC3)C2)s1 | 832 | 871 | 1120 | 1000 | > 10000 | 575 | > 25000
C[C@H]1CCN(c2nc(-c3ccccn3)nc3c2CCC3)C1 | 692 | 1290 | 1230 | 2040 | > 10000 | 2150 | 4750
CC(C)c1cc(CN(Cc2cc(C(C)C)c(O)c(C(C)C)c2)C2CCCCC2)cc(C(C)C)c1O | 100 | 151 | 100 | 631 | > 10000 | 113 | > 8330
COc1ccnc(CN2CCC[C@H](c3nc(-c4ccccc4)c[nH]3)C2)c1OC | 1450 | 1780 | 1700 | 4900 | > 10000 | 15600 | 10200
Cc1ccc(NC(=O)c2c(C)nc3sc(C(=O)NCc4ccccc4)c(N)c3c2-c2ccccc2Cl)c(C)c1 | 831 | 1410 | 1780 | 1510 | > 10000 | 1080 | > 25000
NC(=NCc1cccc2cccnc12)N1CCN(c2nccs2)CC1 | 1700 | 447 | 501 | > 10000 | > 10000 | 709 | > 25000
C[C@H](N)c1ccc(Nc2ncc3cc(-c4ccncc4)ccc3n2)cc1 | 1100 | 2690 | 1200 | > 10000 | > 10000 | 1050 | 11400

From ChEMBL document CHEMBL4888484, “Replenishing the malaria drug discovery pipeline: Screening and hit evaluation of the MMV Hit Generation Library 1 (HGL1) against asexual blood stage Plasmodium falciparum ,using a nano luciferase reporter read-out” (2022)
